pEC50, pIC50: −log10 of the molar value.
Experiments:
HepG2 cells = assay: Cell growth inhibition measurement (CCK-8), HepG2; assay type: cell-based; settings: Homo sapiens, HepG2, 72 h, highest EC50 measured during one or multiple operations, read-out: Inhibition activity against cancer cells, HepG2 (EC50)
Text: A HepG2 cell strain and an HCT-116 cell strain were purchased from Shanghai Institutes for Biological Sciences; a DMEM high-sugar culture medium and an MEM culture medium were purchased from Hyclone; fetal calf serum was purchased from Gibco; trypsin was purchased from Invitrogen Shanghai; a CCK-8 kit was purchased from Beyotime Institute of Biotechnology; and, the remaining cell culture mediums and other consumables were purchased from Corning China.
HepG2 cells and HCT-116 cells in the logarithmic growth phase were digested by trypsin. After the counting of uniform cell suspension, the cell density was adjusted as 1500 cells/well by a culture medium containing 10% serum. The cells were re-inoculated to a 96-well cell culture plate, and cultured to a volume of 200 μL at 37° C. in an incubator containing 5% CO2. The cells could be tested after being cultured for 24 h.
The cells cultured for 24 h were taken out from the incubator. The culture liquid in the well plate was sucked out, and 200 μL of compound solution prepared in the culture medium containing 10% fetal calf serum was added in each well. Five parallel mediums were provided for each concentration, and a DMSO culture medium was used as negative control. The culture mediums were cultured for 72 h at 37° C. in an incubator containing 5% CO2, and CCK-8 detection was performed.
A serum-free culture medium and CCK-8 solution were prepared, and CCK-8 working solution was prepared at a ratio of 10:1 (this process should be performed in dark place).
The cells cultured for 72 h were taken out from the incubator. The culture liquid in the well plate was sucked out, and 120 μL of the CCK-8 working solution was added in each well. A well plate without cells was also added with 120 μL of the CCK-8 working solution to serve as blank control. The well plates were cultured for 1 h at 37° C. in an incubator containing 5% CO2 (this process should be performed in dark place).
The well plates were taken out from the incubator, 100 μL of solution in each well was sucked out and added in a new 96-well plate, and the absorbance was measured at 450 nm (this process should be performed in dark place).
where Tx is the absorbance of the CCK-8 after the compound acts for 72 h;
C is the absorbance of the CCK-8 after the negative control wells are cultured for 72 h; and
B is the absorbance of the CCK-8 in the blank control wells.
The test results of the compounds prepared according to the embodiments during the measurement are shown in Table 3, wherein the measured highest EC50 of the compounds during one operation or multiple operations is classified according to the following description: […]

HDAC 6 = target: T1, HDAC 6 (Homo sapiens, UniProt Q9UBN7); assay: Enzyme activity detection of histone deacetylase 6 (fluorogenic substrate deacetylation); assay type: biochemical; settings: 0.35 ng/μL HDAC 6, 20 μM substrate, 30 min at 37° C.; IC50 class
T1 construct: purchased BPS Bioscience #50076
T1 sequence (Q9UBN7 1-1215): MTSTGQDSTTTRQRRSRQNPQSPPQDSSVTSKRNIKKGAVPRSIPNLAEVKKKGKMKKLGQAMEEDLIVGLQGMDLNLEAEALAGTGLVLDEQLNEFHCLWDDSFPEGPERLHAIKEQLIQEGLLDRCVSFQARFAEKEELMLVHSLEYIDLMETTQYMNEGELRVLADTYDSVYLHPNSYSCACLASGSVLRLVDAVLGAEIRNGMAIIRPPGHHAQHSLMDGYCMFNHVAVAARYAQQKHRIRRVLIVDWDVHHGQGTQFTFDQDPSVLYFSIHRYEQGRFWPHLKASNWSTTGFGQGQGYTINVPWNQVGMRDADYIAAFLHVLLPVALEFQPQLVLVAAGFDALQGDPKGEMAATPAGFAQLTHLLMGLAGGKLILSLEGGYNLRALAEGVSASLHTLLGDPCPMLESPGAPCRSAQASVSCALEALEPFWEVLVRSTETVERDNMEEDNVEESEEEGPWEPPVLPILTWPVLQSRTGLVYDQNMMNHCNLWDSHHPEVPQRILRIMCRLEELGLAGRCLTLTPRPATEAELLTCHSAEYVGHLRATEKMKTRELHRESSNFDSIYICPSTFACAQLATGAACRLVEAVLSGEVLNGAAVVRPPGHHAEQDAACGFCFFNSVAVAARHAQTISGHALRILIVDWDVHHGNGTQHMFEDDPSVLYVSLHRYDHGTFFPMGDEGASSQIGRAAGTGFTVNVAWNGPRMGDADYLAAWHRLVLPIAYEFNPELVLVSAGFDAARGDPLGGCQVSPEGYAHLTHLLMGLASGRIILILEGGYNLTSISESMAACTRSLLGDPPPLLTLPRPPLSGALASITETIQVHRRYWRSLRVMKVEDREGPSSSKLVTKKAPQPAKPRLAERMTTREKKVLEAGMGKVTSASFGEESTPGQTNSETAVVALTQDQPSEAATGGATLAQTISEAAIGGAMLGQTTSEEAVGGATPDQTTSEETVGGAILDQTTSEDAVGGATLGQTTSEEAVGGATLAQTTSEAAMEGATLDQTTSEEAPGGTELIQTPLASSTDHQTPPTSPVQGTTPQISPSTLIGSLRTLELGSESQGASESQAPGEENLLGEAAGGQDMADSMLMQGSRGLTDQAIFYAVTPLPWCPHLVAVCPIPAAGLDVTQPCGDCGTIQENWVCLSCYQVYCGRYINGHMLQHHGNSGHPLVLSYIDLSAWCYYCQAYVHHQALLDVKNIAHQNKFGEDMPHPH
Text: During the deacetylation detection of a substrate, the HDAC inhibition activity of the compound of the present invention was detected.
A: Enzyme Activity Detection of Histone Deacetylase 6 (#50076, BPS Bioscience)
Acetyl on the substrate was removed by the HDAC 6, so that the substrate was activated, and the developing liquid added subsequently could act on the substrate to release the fluorescent group. The size of the fluorescence signal reflected the activity of the HDAC 6. The IC50 detection method for this enzyme was disclosed in Chuping Xu, Elisabetta Soragni Improved Histone Deacetylase Inhibitors as Therapeutics for the Neurdegenerative Disease Friedreich's Ataxia: A New Synthetic Route. The total reaction system (100 μL/well) contained 0.35 ng/μL of HDAC 6, 20 μM of the substrate and the compound in different concentrations. The reaction system was incubated for 30 min at 37° C., and the fluorescence signal was then measured. The inhibition effect of the compound was determined from the obtained data, a concentration response curve was obtained by using the inhibition effect and the concentration of the compound, and the value of IC50 was fitted according to a four-parameter model.
The activities of the compounds prepared in the embodiments against the histone deacetylases 1, 3 and 6 (i.e., HDAC 1, HDAC 3 and HDAC 6) were detected by the above methods, and the test results were shown in Table 2, where the measurements of IC50 of the compounds were classified according to the following description: […]

`CN1CCN(c2ccc(-c3ccc(S(=O)(=O)N4CC=C(C(=O)NO)CC4)cc3)cc2)CC1` [Compound 29, N-hydroxyl-1-((4′-(4-methylpiperazinyl)-[1,1′-biphenyl]-4-yl)sulfonyl)-1,2,3,6-tetrahydropyridine-4-formamide] showed a pEC50 (HepG2 cells) greater than 7.00 and a pIC50 (HDAC 6) greater than 7.00.

— patent publication US11149008B2, “Sulfamide derivatives and preparation method and use thereof” (HitGen Ltd., priority 2015, dated 2021)
